Data published in patent US7648974B1, “19-nor-vitamin D analogs with 3,2-dihydrofuran ring” (Wisconsin Alumni Research Foundation, priority 2008, dated 2010).
Entries after “also recorded” stand apart in the source; their conditions may differ.

Assays:
[1] = tested on: 24-hydroxylase (24Ohase) gene promoter; assay: In vitro transcription assay, luciferase reporter in ROS 17/2.8 (bone) cells; type: cell-based; details: ROS 17/2.8 cells, 24-hydroxylase promoter luciferase; FIG. 3; read-out: EC50, transcriptional activity in bone cells
Method: In Vitro Transcription Assay
Transcription activity was measured in ROS 17/2.8 (bone) cells that were stably transfected with a 24-hydroxylase (24Ohase) gene promoter upstream of a luciferase reporter gene (Arbour et al., 1998). Cells were given a range of doses. Sixteen hours after dosing the cells were harvested and luciferase activities were measured using a luminometer.
RLU=relative luciferase units.

Sprague-Dawley rats [2] = assay: Bone calcium mobilization (serum calcium); type: in vivo; details: FIG. 4; for serum calcium value: 7,020 pmol/day for 4 consecutive days, ip, low calcium diet (0.02%)
Method: (§1) Intestinal Calcium Transport and Bone Calcium Mobilization
(§2) Male, weanling Sprague-Dawley rats were placed on Diet 11 (0.47% Ca) diet+AEK oil for one week followed by Diet 11 (0.02% Ca)+AEK oil for 3 weeks. The rats were then switched to a diet containing 0.47% Ca for one week followed by two weeks on a diet containing 0.02% Ca. Dose administration began during the last week on 0.02% calcium diet. Four consecutive ip doses were given approximately 24 hours apart. Twenty-four hours after the last dose, blood was collected from the severed neck and the concentration of serum calcium determined as a measure of bone calcium mobilization. The first 10 cm of the intestine was also collected for intestinal calcium transport analysis using the everted gut sac method.

[3] = tested on: Human promyelocytic leukemia (HL60) cells; assay: HL-60 differentiation (nitro blue tetrazolium reduction); type: cell-based; details: for EC50: Homo sapiens, HL-60, HL60 cells, FIG. 2
Method: Serial dilutions were prepared so that a range of drug concentrations could be tested without changing the final concentration of ethanol (≦0.2%) present in the cell cultures.
Human promyelocytic leukemia (HL60) cells were grown in RPMI-1640 medium containing 10% fetal bovine serum. The cells were incubated at 37° C. in the presence of 5% CO2.
HL60 cells were plated at 1.2×10^5 cells/ml. Eighteen hours after plating, cells in duplicate were treated with drug. Four days later, the cells were harvested and a nitro blue tetrazolium reduction assay was performed (Collins et al., 1979; J. Exp. Med. 149:969-974). The percentage of differentiated cells was determined by counting a total of 200 cells and recording the number that contained intracellular black-blue formazan deposits. Verification of differentiation to monocytic cells was determined by measuring phagocytic activity (data not shown).

[4] = target: T1, full-length recombinant rat vitamin D receptor (Rattus norvegicus, UniProt P13053)
T1 sequence (P13053 1-423): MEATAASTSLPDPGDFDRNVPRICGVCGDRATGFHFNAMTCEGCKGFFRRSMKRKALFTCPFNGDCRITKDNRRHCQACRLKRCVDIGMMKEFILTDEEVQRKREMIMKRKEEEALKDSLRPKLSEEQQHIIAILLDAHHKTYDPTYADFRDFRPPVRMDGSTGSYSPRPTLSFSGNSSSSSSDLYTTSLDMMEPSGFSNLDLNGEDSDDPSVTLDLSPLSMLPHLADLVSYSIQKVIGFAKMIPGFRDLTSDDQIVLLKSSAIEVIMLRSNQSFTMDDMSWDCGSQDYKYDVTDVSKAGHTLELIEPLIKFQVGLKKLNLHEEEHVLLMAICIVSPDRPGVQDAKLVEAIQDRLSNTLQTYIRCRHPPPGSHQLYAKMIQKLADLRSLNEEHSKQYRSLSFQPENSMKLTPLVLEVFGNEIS
From the text: Vitamin D Receptor Binding
Full-length recombinant rat receptor was expressed in E. coli BL21 (DE3) Codon Plus RIL cells and purified to homogeneity using two different column chromatography systems. The first system was a nickel affinity resin that utilizes the C-terminal histidine tag on this protein. The protein that was eluted from this resin was further purified using ion exchange chromatography (S-Sepharose Fast Flow). Aliquots of the purified protein were quick frozen in liquid nitrogen and stored at −80° C. until use. For use in binding assays, the protein was diluted in TEDK50 (50 mM Tris, 1.5 mM EDTA, pH7.4, 5 mM DTT, 150 mM KCl) with 0.1% Chaps detergent.
Radiolabeled and unlabeled ligands were added to 100 mcl of the diluted protein at a final ethanol concentration of ≦10%, mixed and incubated overnight on ice to reach binding equilibrium. The following day, 100 mcl of hydroxylapatite slurry (50%) was added to each tube and mixed at 10-minute intervals for 30 minutes. The hydroxylapaptite was collected by centrifugation and then washed three times with Tris-EDTA buffer (50 mM Tris, 1.5 mM EDTA, pH 7.4) containing 0.5% Titron X-100. After the final wash, the pellets were transferred to scintillation vials containing 4 ml of Biosafe II scintillation cocktail, mixed and placed in a scintillation counter. Total binding was determined from the tubes containing only radiolabeled ligand.

Sprague-Dawley rats [5] = assay: Intestinal calcium transport (everted gut sac method); type: in vivo; details: FIG. 5
Method: as §1, §2

| SMILES | EC50 [1] [nM] | serum calcium value (Sprague-Dawley rats [2]) [mg/dL] | bone calcium mobilization activity (in words) (Sprague-Dawley rats [2]; in vivo, doses tested) | EC50 [3] [nM] | Ki [4] [nM] | VDR affinity, less potent than 1,25-(OH)2D3 ([4]; relative to 1,25-(OH)2D3) [times] | VDR binding diminished as compared to 1α,25-dihydroxyvitamin D3 ([4]; relative to 1α,25-dihydroxyvitamin D3) [fold] | VDR binding affinity lower than the native hormone ([4]; relative to the native hormone) | HL-60 cell differentiation, less active/potent than 1,25(OH)2D3 ([3]; relative to 1,25(OH)2D3) | potency to promote HL60 cell differentiation, less than calcitriol ([3]; relative to calcitriol) [logs] | intestinal calcium transport activity (in words) (Sprague-Dawley rats [5]; 780 pmol/day for 4 consecutive days) | intestinal calcium transport activity in vivo (in words) (Sprague-Dawley rats [5]; in vivo, compared to 1,25-(OH)2D3) |
| --- | --- | --- | --- | --- | --- | --- | --- | --- | --- | --- | --- | --- |
| C=C1/C(=C\C=C2/CCC[C@]3(C)[C@@H]([C@H](C)CCCC(C)(C)O)CC[C@@H]23)C[C@@H](O)C[C@@H]1O [1,25-(OH)2D3, 1α,25-dihydroxyvitamin D3, reference compound] | 0.2 | 7.9 | increased serum calcium levels at all the dosages tested | 3 |  |  |  |  |  |  |  |  |
| C[C@H](CCCC(C)(C)O)C1CCC2/C(=C/C=C3\C[C@@H](O)C4=CCO[C@@H]4C3)CCC[C@@]21C (stereo partly drawn) [B-REV5, 3,2-dihydrofuran-1α,25-dihydroxy-19-nor-vitamin D3] | 300 | 6.1 |  | 1000 | 800 | ~40 | ~10 | approximately 4 orders of magnitude | about 1,000 times | 3 | almost the same activity as 1,25-(OH)2D3 | significant intestinal calcium transport activity; also recorded: about the same potency |
